Source: paper PMC6311682, “Design, Synthesis, and Biological Evaluation of 2-Nitroimidazopyrazin-one/-es with Antitubercular and Antiparasitic Activity” (Journal of Medicinal Chemistry, 2018)
Converted amounts (≈) assume the structure as drawn. Like-named read-outs stand apart in the source and are kept apart here.

Assays:
[1] = Mammalian cytotoxicity assay (resazurin), HEK293; settings: human, HEK293 cells
[2] = Mammalian cytotoxicity assay (resazurin), HepG2; settings: human, HepG2 cells
[3] = system: L. donovani MHOM/IN/80/DD8 (ATCC50212); assay: L. donovani DD8 intracellular (THP-1) amastigote assay; format: cell-based; settings: Leishmania donovani
[4] = Kinetic solubility determination by LC-UV; settings: room temperature, 1% DMSO
[5] = system: C. difficile (630, ATCC BAA-1382); assay: Broth microdilution MIC assay, C. difficile; format: cell-based, Clostridium difficile; settings: 630 ATCC BAA-1382, median MIC; for MIC: Clostridioides difficile, ATCCBAA1382, read-out: antibacterial MIC C. difficile
[6] = Broth microdilution MIC assay, ESKAPE pathogens; format: cell-based; settings: S. aureus, E. coli, K. pneumoniae, A. baumannii, P. aeruginosa; read-out: antibacterial MIC ESKAPE
[7] = system: ESKAPE pathogens S. aureus (ATCC 43300), E. coli (ATCC 25922), K. pneumoniae (ATCC 700603), A. baumannii (ATCC 19606), P. aeruginosa (ATCC 27853); assay: Broth microdilution MIC assay, ESKAPE pathogens; format: cell-based
[8] = system: E. histolytica (HM1:IMSS); assay: ATP-bioluminescence cell growth and survival assay, E. histolytica trophozoites; format: cell-based; settings: Entamoeba histolytica
[9] = read-out: antiparasitic IC50 L. donovani
[10] = read-out: antiparasitic pIC50 ± SE L. donovani (converted)
[11] = PBS, pH 7.4, Solubility µM (PBS), PBS pH 7.4, 24 h
[12] = water, Solubility µM (H2O), 24 h
[13] = read-out: antiparasitic IC50 E. histolytica
[14] = read-out: antiparasitic pIC50 ± SE E. histolytica (converted)

With `O=C(NCc1ccccc1)c1nc([N+](=O)[O-])c[nH]1` [16b, N-Benzyl-5-nitro-1H-imidazole-2-carboxamide] the CC50 at 24 h [1] was > 100 µM and the CC50 at 24 h [2] was > 100 µM.

For `Cc1ccc(CNC(=O)c2nc([N+](=O)[O-])c[nH]2)cc1` [16d, N-(4-Methylbenzyl)-5-nitro-1H-imidazole-2-carboxamide], the CC50 at 24 h [1] was > 100 µM and the CC50 at 24 h [2] was > 100 µM.

In the case of `O=c1[nH]ccn2cc([N+](=O)[O-])nc12` [17a, 2-Nitroimidazo[1,2-a]pyrazin-8(7H)-one], the IC50 [3, 9] is reported as > 80 µM, the IC50 [3, 10] is reported as > 79.4 µM and the solubility at 24 h [4, 11] is reported as > 200 µM. For the same compound, the solubility at 24 h [4, 12] was > 200 µM, the “antibacterial MIC C. difficile” value [5] was >64 µg/mL and the MIC [5] was > 64 µg/mL. For the same compound, the MIC [6] was > 32 µg/mL, the “antibacterial MIC ESKAPE” value [7] was >32 µg/mL and the IC50 [8, 13] was > 25 µM. For the same compound, the IC50 [8, 14] was > 25.1 µM.

For `Cc1ccc(Cn2ccn3cc([N+](=O)[O-])nc3c2=O)cc1` [17d, 7-(4-Methylbenzyl)-2-nitroimidazo[1,2-a]pyrazin-8(7H)-one], the IC50 [3, 9] was > 80 µM, the IC50 [3, 10] was > 79.4 µM and the solubility at 24 h [4, 11] was < 5 µM. The solubility at 24 h [4, 12] was < 5 µM, the MIC [6] was > 32 µg/mL and the “antibacterial MIC ESKAPE” value [7] was >32 µg/mL.

For `O=c1c2nc([N+](=O)[O-])cn2ccn1Cc1ccccc1OC(F)(F)F` [17i, 2-Nitro-7-(2-(trifluoromethoxy)benzyl)imidazo[1,2-a]pyrazin-8(7H)-one], the IC50 [3, 9] was > 40 µM, the IC50 [3, 10] was > 39.8 µM and the solubility at 24 h [4, 11] was < 5 µM. For the same compound, the solubility at 24 h [4, 12] was < 5 µM, the MIC [6] was > 32 µg/mL and the “antibacterial MIC ESKAPE” value [7] was >32 µg/mL. The IC50 [8, 13] was > 50 µM and the IC50 [8, 14] was > 50.1 µM.

For `O=c1c2nc([N+](=O)[O-])cn2ccn1Cc1ccc(F)cc1F` [17j, 7-(2,4-Difluorobenzyl)-2-nitroimidazo[1,2-a]pyrazin-8(7H)-one], the IC50 [3, 9] was > 40 µM, the IC50 [3, 10] was > 39.8 µM and the solubility at 24 h [4, 11] was < 5 µM. The solubility at 24 h [4, 12] was < 5 µM, the MIC [6] was > 32 µg/mL and the “antibacterial MIC ESKAPE” value [7] was >32 µg/mL. For the same compound, the IC50 [8, 13] was > 50 µM and the IC50 [8, 14] was > 50.1 µM.

For `O=c1c2nc([N+](=O)[O-])cn2ccn1Cc1ccccn1` [17k, 2-Nitro-7-(pyridin-2-ylmethyl)imidazo[1,2-a]pyrazin-8(7H)-one, 1TFA], the IC50 [3, 9] was > 80 µM, the IC50 [3, 10] was > 79.4 µM and the “antibacterial MIC C. difficile” value [5] was >64 µg/mL. For the same compound, the MIC [5] was > 64 µg/mL, the MIC [6] was > 32 µg/mL and the “antibacterial MIC ESKAPE” value [7] was >32 µg/mL. For the same compound, the IC50 [8, 13] was > 50 µM and the IC50 [8, 14] was > 50.1 µM.

For `CC(c1ccc(F)cc1)n1ccn2cc([N+](=O)[O-])nc2c1=O` (centres unmarked) [17l, 7-(1-(4-Fluorophenyl)ethyl)-2-nitroimidazo[1,2-a]pyrazin-8(7H)-one], the IC50 [3, 9] was > 80 µM, the IC50 [3, 10] was > 79.4 µM and the solubility at 24 h [4, 11] was < 10 µM. The solubility at 24 h [4, 12] was < 10 µM, the “antibacterial MIC C. difficile” value [5] was >64 µg/mL and the MIC [5] was > 64 µg/mL. For the same compound, the MIC [6] was > 32 µg/mL, the “antibacterial MIC ESKAPE” value [7] was >32 µg/mL and the IC50 [8, 13] was > 50 µM. For the same compound, the IC50 [8, 14] was > 50.1 µM.

For `CC(=O)OCCn1ccn2cc([N+](=O)[O-])nc2c1=O` [17o, 2-(2-Nitro-8-oxoimidazo[1,2-a]pyrazin-7(8H)-yl)ethyl Acetate], the IC50 [3, 9] was > 80 µM, the IC50 [3, 10] was > 79.4 µM and the “antibacterial MIC C. difficile” value [5] was >64 µg/mL. The MIC [5] was > 64 µg/mL, the MIC [6] was > 32 µg/mL and the “antibacterial MIC ESKAPE” value [7] was >32 µg/mL. For the same compound, the IC50 [8, 13] was > 50 µM and the IC50 [8, 14] was > 50.1 µM.

With `O=c1c2nc([N+](=O)[O-])cn2ccn1CCO` [17p, 7-(2-Hydroxyethyl)-2-nitroimidazo[1,2-a]pyrazin-8(7H)-one] the IC50 [3, 9] was > 80 µM, the IC50 [3, 10] was > 79.4 µM and the solubility at 24 h [4, 11] was > 200 µM. For the same compound, the solubility at 24 h [4, 12] was > 200 µM, the “antibacterial MIC C. difficile” value [5] was >64 µg/mL and the MIC [5] was > 64 µg/mL. For the same compound, the MIC [6] was > 32 µg/mL, the “antibacterial MIC ESKAPE” value [7] was >32 µg/mL and the IC50 [8, 13] was > 50 µM. For the same compound, the IC50 [8, 14] was > 50.1 µM.

In the case of `O=c1c2nc([N+](=O)[O-])cn2ccn1CCN1CCOCC1` [17q, 4-(2-(2-Nitro-8-oxoimidazo[1,2-a]pyrazin-7(8H)-yl)ethyl)morpholin-4-ium 2,2,2-Trifluoroacetate], the IC50 [3, 9] is reported as > 80 µM, the IC50 [3, 10] is reported as > 79.4 µM and the “antibacterial MIC C. difficile” value [5] is reported as >64 µg/mL. The MIC [5] was > 64 µg/mL, the MIC [6] was > 32 µg/mL and the “antibacterial MIC ESKAPE” value [7] was >32 µg/mL. The IC50 [8, 13] was > 50 µM.

In the case of `O=C(Cn1ccn2cc([N+](=O)[O-])nc2c1=O)N1CCOCC1` [17r, 7-(2-Morpholino-2-oxoethyl)-2-nitroimidazo[1,2-a]pyrazin-8(7H)-one], the IC50 [3, 9] is reported as > 80 µM, the IC50 [3, 10] is reported as > 79.4 µM and the solubility at 24 h [4, 11] is reported as 194 ± 0.526 µM (≈ 59.6 µg/mL). For the same compound, the solubility at 24 h [4, 12] was 192 ± 1.51 µM (≈ 59 µg/mL), the “antibacterial MIC C. difficile” value [5] was >64 µg/mL and the MIC [5] was > 64 µg/mL. For the same compound, the MIC [6] was > 32 µg/mL, the “antibacterial MIC ESKAPE” value [7] was >32 µg/mL and the IC50 [8, 13] was > 50 µM. The IC50 [8, 14] was > 50.1 µM.
